Measurements reported in patent publication US20090312237A1, “REGULATING FAT AND CARBOHYDRATE OXIDATION IN MUSCLE TISSUE COMPRISING CONTROLLING GARNITINE CONTENT IN MUSCLE” (THE UNIVERSITY OF NOTTINGHAM, priority 2006, published 2009).

How the values were obtained:
Format in all cases: in vivo, human
[1] = Skeletal muscle carnitine content (vastus lateralis biopsy, radioenzymatic)
Description: (§1) Seven healthy, non-vegetarian young men (age 22.4±1.5 yr, body mass 84.3±5.0 kg, body mass index […]) participated in the study. Each subject reported to the laboratory at 8 am on two occasions, separated by a 2-week “wash out” period, and voided their bladder. All subjects had abstained from carnitine containing foods, alcohol, and strenuous exercise for the previous 24 hours. On arrival, subjects were asked to rest in a supine position on a bed while a cannula was inserted retrogradely in to a superficial vein on the dorsal surface of the non-dominant hand. This hand was kept in a hand-warming unit (air temperature 50-55° C.) to arterialize the venous drainage of the hand, and a saline drip was attached to keep the cannula patent. A second cannula was placed in an antecubital vein in the non-dominant forearm for the infusion of insulin and glucose, and a third cannula was inserted into an antecubital vein in the opposite arm for infusion of L-carnitine.
(§2) On each experimental visit, a 6 hour (h) euglycaemic hyperinsulinaemic insulin (human Actrapid, Novo Nordisk, Denmark) clamp was performed, whilst maintaining a fasting blood glucose concentration of 4.47±0.01 mmol·l^−1. The insulin clamp began at t=0 at a rate of 105 mlU·m^−2·min^−1 with the aim of achieving steady state hyperinsulinaemic (˜150 mlU·l^−1) serum insulin concentration throughout each visit. Following a 1 hour equilibration period, a 5 hour intravenous infusion of 60 mM L-carnitine (CARN) (Lonza Ltd, Basel, Switzerland) or the equivalent volume of saline (CON) began, in randomised manner, in conjunction with the insulin clamp. At the onset of L-carnitine infusion a bolus dose of 15 mg·kg^−1 was administered over 10 minutes (min) in order to rapidly reach a supraphysiological plasma concentration of ˜500 μmol·l^−1. This was followed by a constant infusion at 10 mg·kg^−1·h^−1 for the next […] to maintain hypercarnitinaemia. At t=6 h, the insulin and L-carnitine infusions were stopped, whereas the glucose infusion was continued for approximately 80 min in order to stabilise blood glucose concentration. During this time, on each visit, subjects were fed the same standardised, carnitine-free meal.
(§3) Muscle biopsy samples were obtained from the vastus lateralis muscle immediately before and after each insulin clamp, and the following morning, using the percutaneous needle biopsy technique, and were snap frozen in liquid nitrogen less than 5 seconds after removal from the limb. One portion of the sample was subsequently freeze-dried and stored at −80° C., and the remainder was stored “wet” in liquid nitrogen. After removal of visible blood and connective tissue, the freeze-dried muscle samples were powdered, and free carnitine (FC), acetylcarnitine (AC), long-chain acylcarnitine (LCAC), and long-chain acyl-CoA (LCACoA) contents were determined radioenzymatically using a modified version of the radioenzymatic method of Cederblad et al (1990). Values were subsequently summed in order to calculate muscle TC. To reduce the variance in non-muscle constituents, muscle carnitine content was adjusted for the highest total creatine content from each pair of samples. Total creatine was calculated as the sum of free creatine and phosphocreatine content determined spectrophotometrically using the method of Harris et al (1974). Muscle glycogen, glucose-6-phosphate (G-6-P), and lactate content was also determined using a modified version of the spectrophotometric method of Harris et al (1974).
(§4) A two-way ANOVA (time and treatment effects; GraphPad Prism 4.02, GraphPad Software Inc, CA) was performed to locate differences in serum insulin, plasma carnitine, plasma FFA, and blood glucose concentrations as well as muscle PDC activity and carnitine, long-chain acyl-CoA, glycogen, lactate, and glucose-6-phosphate content. When a significant main effect was detected, data were further analysed with Student's paired t tests using the Bonferroni correction. […]

[2] = test system: pyruvate dehydrogenase complex (PDC); assay: Muscle pyruvate dehydrogenase complex (PDC) activity in biopsy samples; conditions: for post infusion PDC activity less than CON: CARN vs CON, P<0.05; for muscle PDC activity: post infusion/clamp
Description: as §1
(§5) On each experimental visit, a 6 hour (h) euglycaemic hyperinsulinaemic insulin (human Actrapid, Novo Nordisk, Denmark) clamp was performed, whilst maintaining a fasting blood glucose concentration of 4.47±0.01 mmol·l^−1. The insulin clamp began at t=0 at a rate of 105 mlU·m^−2·min^−1 with the aim of achieving steady state hyperinsulinaemic (˜150 mlU·l^−1) serum insulin concentration throughout each visit. […]
Muscle biopsy samples were obtained from the vastus lateralis muscle immediately before and after each insulin clamp, and the following morning, using the percutaneous needle biopsy technique, and were snap frozen in liquid nitrogen less than 5 seconds after removal from the limb. […] After removal of visible blood and connective tissue, the freeze-dried muscle samples were powdered, and free carnitine (FC), acetylcarnitine (AC), long-chain acylcarnitine (LCAC), and long-chain acyl-CoA (LCACoA) contents were determined radioenzymatically using a modified version of the radioenzymatic method of Cederblad et al (1990). […] Total creatine was calculated as the sum of free creatine and phosphocreatine content determined spectrophotometrically using the method of Harris et al (1974). Muscle glycogen, glucose-6-phosphate (G-6-P), and lactate content was also determined using a modified version of the spectrophotometric method of Harris et al (1974).
The remainder of the frozen muscle was used to determine PDC activity as previously described (Constantin-Teodosiu et al, 1991). Briefly, the activity of PDC in its dephosphorylated active form (PDCa) was assayed in a buffer containing NaF and dichloroacetate (DCA) and was expressed as rate of acetyl-CoA formation (mmol·min^1·(kg wet muscle)^−1 or nmol·min^1·(mg protein)^−1) at 37° C. Protein concentrations were determined using the method of Peterson (1977). […]

[3] = Euglycaemic hyperinsulinaemic clamp with intravenous L-carnitine infusion: serum insulin and whole body glucose disposal; conditions: for whole body glucose disposal: mean±SEM
Description: as §1, §5
(§6) During each experimental visit, 1 ml of arterialized venous (a-v) blood was obtained every 5 min for monitoring blood glucose concentration (YSI 2300 STATplus, Yellow Springs Instruments, Ohio). […] These samples were then stored at −80° C. and analyzed at a later date for free fatty acid (FFA) concentration, using an enzymatic-colorimetric assay kit (NEFA C kit, WAKO Chemicals, Germany), and total carnitine (TC) concentration, using the radioenzymatic assay described previously by Cederblad et al (1982). […] Insulin was measured in these samples at a later date with a radioammunoassy kit (Coat-a-Count Insulin, DPC, Ca, USA). […]

[4] = Muscle metabolites (glycogen, lactate, glucose-6-phosphate, long-chain acyl-CoA) in biopsy samples; conditions: for muscle LCACoA content greater than CON: following morning (24 h), CARN vs CON, P<0.05
Description: as §1, §2, §3, §4

[5] = Plasma free fatty acid (FFA) concentration during L-carnitine infusion with insulin clamp; conditions: not significantly different from CON
Description: Seven healthy, non-vegetarian young men (age 22.4±1.5 yr, body mass 84.3±5.0 kg, body mass index […]) participated in the study. Each subject reported to the laboratory at 8 am on two occasions, separated by a 2-week “wash out” period, and voided their bladder. All subjects had abstained from carnitine containing foods, alcohol, and strenuous exercise for the previous 24 hours. On arrival, subjects were asked to rest in a supine position on a bed while a cannula was inserted retrogradely in to a superficial vein on the dorsal surface of the non-dominant hand. This hand was kept in a hand-warming unit (air temperature 50-55° C.) to arterialize the venous drainage of the hand, and a saline drip was attached to keep the cannula patent. […]
as §6

SMILES: C[N+](C)(C)C[C@H](O)CC(=O)[O-] [L-carnitine]
- skeletal muscle total carnitine (TC) content ([1]; 24 h (following morning), not significantly different from pre infusion value): 25.1±2.2 mmol·(kg dm)^−1
- muscle free carnitine (FC) overnight ([1]; 24 h after CARN infusion visit): retuning to basal
- skeletal muscle total carnitine (TC) content ([1]; after 5 h L-carnitine infusion during hyperinsulinaemia, pre infusion 22.5±2.0, P<0.01): 26.6±1.6 mmol·(kg dm)^−1
- change in muscle acetyl carnitine (AC) ([1]; during the CARN infusion visit): no change
- increase in muscle free carnitine (FC) ([1]; during the CARN infusion visit, P<0.05): 17%
- skeletal muscle long chain acyl carnitine ([1]; following infusion visit): unchanged
- increase in skeletal muscle TC ([1]; post vs pre 5 h L-carnitine infusion during hyperinsulinaemia): 15%
- post infusion PDC activity less than CON [2]: 30%
- post infusion PDC activity less than CON ([2]; listed as CARN): 31%
- muscle PDC activity ([2]; pre 0.43±0.07, P<0.01): 0.74±0.06 mmol·min^−1·(kg wm)^−1
- muscle PDC activity ([2]; pre 4.2±1.6): 4.1±0.9 nmol·min^−1·(mg protein)^−1
- whole body glucose disposal ([3]; 80 min recovery period following the clamp): 37.2 ± 3.5 g
- whole body glucose disposal ([3]; over the 6 h clamp, n=7): 316.8 ± 15.0 g
- total amount of glucose infused ([3]; whole visit (CON approximately 330 g)): ~350 g
- muscle glycogen content ([4]; 24 h after commencement of the insulin infusion, P<0.001 vs pre, P<0.01 vs CON): 736±24 mmol·(kg dm)^−1
- difference in whole body muscle glycogen content between CON and CARN visits ([4]; assuming skeletal muscle contributes to 40% of total body mass): 250 g
- skeletal muscle glucose-6-phosphate content ([4]; during each visit): No significant differences
- increase in muscle glycogen content compared with CON ([4]; following an overnight fast (24 h)): 30%
- muscle LCACoA content ([4]; following morning (24 h) in the CARN visit): returned to basal
- muscle LCACoA content greater than CON [4]: 40%
- muscle LCACoA content greater than CON ([4]; listed as CARN): 39%
- skeletal muscle lactate content ([4]; following the CARN infusion visit (CON increased 56%)): unchanged
- decrease in muscle lactate content ([4]; post infusion, 6 hour clamp): 40%
- muscle glycogen content ([4]; post infusion, resting 487±23, P<0.01): 651±37 mmol·(kg dm)^−1
- plasma FFA concentration ([5]; by 24 h): 0.19 ± 0.02 mmol/L
- plasma FFA concentration ([5]; maintained during the insulin clamp, basal 0.30±0.04): 0.046 ± 0.01 mmol/L
